Measurements published in patent US20210330611A1, “THERAPY FOR NEUROLOGICAL DISEASES/DISORDERS” (priority 2020, published 2021).
Structures can show the parent of a compound that is named as a salt. Where two headings read alike, the source gives them in different places.

Experiments:
[1] = tested on: fibrin-induced microglia activation; test: Image-based assay of fibrin-induced microglia activation (HTS and dose response); type: cell-based, rat; conditions: primary microglia HTS, fibrin stimulation, cell size >800 μm2 as marker of activation; for inhibition at 10 µM: Rattus norvegicus, Microglia, read-out: Fibrin % inhibition
[2] = tested on: fibrin- and LPS-induced microglia activation; test: cells; type: cell-based, rat; conditions: classification by fibrin and LPS inhibition in HTS
[3] = tested on: LPS-induced microglia activation; test: Image-based assay of LPS-induced microglia activation (HTS and dose response); type: cell-based, rat; conditions: for inhibition at 10 µM: Rattus norvegicus, Microglia, 48 h, read-out: LPS % inhibition
primary rat microglia [4] = tested on: primary rat microglia
primary rat microglia [5] = test: Cell toxicity (dead cells, size <150 μm2) in coated fibrin (cFib) assay; conditions: primary microglia HTS, fibrin stimulation, cell size <150 μm2 as marker of toxicity;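 also: share of dead cells sized under 150 µm2 at 10 µM in fibrin-stimulated microglia HTS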

Structure (SMILES) | inhibition at 10 µM [1] [%] | Quadrant (FIG. 5b) [2] | inhibition at 10 µM [3] [%] | LPS % cell toxicity (primary rat microglia [4]; rat) [%] | Fibrin % cell toxicity (primary rat microglia [5]) [%] | Fibrin % inhibition [1] [%] | LPS % inhibition [3] [%] | LPS % cell toxicity (primary rat microglia [4]) [%]
COc1ccc(C2CNC(=O)C2)cc1OC1CCCC1 (stereo not drawn) [Rolipram] | 11 | Q4 | 11 | 0 | 0 | – | – | –
CN(C)[C@@H]1C(O)=C(C(=O)NCN2CCCC2)C(=O)[C@@]2(O)C(O)=C3C(=O)c4c(O)cccc4[C@@](C)(O)[C@H]3C[C@@H]12 [Rolitetracycline] | 4 | Q4 | 9 | 0 | 1 | – | – | –
Cn1c([N+](=O)[O-])cnc1COC(N)=O [Ronidazole] | 31 | Q4 | 20 | 0 | 1 | – | – | –
O=[N+]([O-])c1cc([As](=O)(O)O)ccc1O [Roxarsone] | – | Q4 | – | 1 | 1 | −18 | 17 | –
CC(=O)OCC(=O)NCCCOc1cccc(CN2CCCCC2)c1 [Roxatidine acetate] | 22 | Q4 | 6 | 0 | 1 | – | – | –
CC[C@H]1OC(=O)[C@H](C)[C@@H](O[C@H]2C[C@@](C)(OC)[C@@H](O)[C@H](C)O2)[C@H](C)[C@@H](O[C@@H]2O[C@H](C)C[C@H](N(C)C)[C@H]2O)[C@](C)(O)C[C@@H](C)/C(=N\OCOCCOC)[C@H](C)[C@@H](O)[C@]1(C)O [Roxithromycin] | -4 | Q4 | 17 | 1 | 0 | – | – | –
CN1CCN(c2c(F)cc3c(=O)c(C(=O)O)cn4c3c2SCC4)CC1 [Rufloxacin Hydrochloride] | -3 | Q4 | 21 | 0 | 1 | – | – | –
C[C@@H]1O[C@@H](OC[C@H]2O[C@@H](Oc3c(-c4ccc(O)c(O)c4)oc4cc(O)cc(O)c4c3=O)[C@H](O)[C@@H](O)[C@@H]2O)[C@H](O)[C@H](O)[C@H]1O [Rutin] | 1 | Q4 | 18 | 0 | 1 | – | – | –
C[C@@](Cc1ccc(O)c(O)c1)(NN)C(=O)O [S-(−)-carbidopa, Carbidopa] | – | Q4 | – | – | 0 | −91 | 16 | 0
OCc1ccccc1O [Salicyl Alcohol] | -5 | Q4 | 19 | 0 | 1 | – | – | –
O=C(Nc1ccccc1)c1ccccc1O [Salicylanilide] | 1 | Q4 | 13 | 0 | 1 | – | – | –
O=C(Oc1ccccc1C(=O)O)c1ccccc1O [Salsalate] | -22 | Q4 | 14 | 1 | 1 | – | – | –
O=C(O)c1cn(-c2ccc(F)cc2)c2cc(N3CCNCC3)c(F)cc2c1=O [Sarafloxacin] | 2 | Q4 | 4 | 0 | 0 | – | – | –
N#C[C@@H]1C[C@@H]2C[C@@H]2N1C(=O)[C@@H](N)C12CC3CC(CC(O)(C3)C1)C2 [Saxagliptin] | 34 | Q4 | 38 | 0 | 1 | – | – | –
Cc1ncc([N+](=O)[O-])n1CC(C)O (stereo not drawn) [Secnidazole] | -24 | Q4 | 22 | 2 | 1 | – | – | –
C[Se]CC[C@H](N)C(=O)O [Selenomethionine] | -5 | Q4 | 10 | 0 | 1 | – | – | –
O=C(O)c1cc(O)c2c(c1)[C@H]([C@H]1c3cc(C(=O)O)cc(O)c3C(=O)c3c(O[C@@H]4O[C@H](CO)[C@@H](O)[C@H](O)[C@H]4O)cccc31)c1cccc(O[C@@H]3O[C@H](CO)[C@@H](O)[C@H](O)[C@H]3O)c1C2=O [Sennoside A] | – | Q4 | – | – | 1 | −10 | 14 | 0
CC1=C(C)C(=O)C(C(CCCCCC(=O)O)c2ccccc2)=C(C)C1=O (stereo not drawn) [Seratrodast] | 20 | Q4 | 14 | 0 | 1 | – | – | –
Clc1ccc(C(Cn2ccnc2)OCc2csc3c(Cl)cccc23)c(Cl)c1 (stereo not drawn) [Sertaconazole] | -25 | Q4 | 11 | 0 | 1 | – | – | –
FCOC(C(F)(F)F)C(F)(F)F [Sevoflurane] | -1 | Q4 | 17 | 1 | 1 | – | – | –
CN[C@@H]1[C@@H](O)[C@@H](O[C@@H]2[C@@H](O)[C@H](O[C@H]3OC(CN)=CC[C@H]3N)[C@@H](N)C[C@H]2N)OC[C@]1(C)O [Sisomicin Sulfate] | -41 | Q4 | 10 | 0 | 0 | – | – | –
